# Experimental data: patent publication US20060067978A1, “Process for preparing poly(vinyl alcohol) drug delivery devices” (Bausch & Lomb Incorporated, priority 2004, published 2006)
# Assay: thermal decomposition of the medicament at curing temperature
# Assay type: physicochemical
# Settings: heat stability considered for curing poly(vinyl alcohol) in the presence of the medicament
smiles,measurement,value
CC1(C)O[C@@H]2C[C@H]3[C@@H]4C[C@H](F)C5=CC(=O)C=C[C@]5(C)[C@@]4(F)[C@@H](O)C[C@]3(C)[C@]2(C(=O)CO)O1 [flucinolone acetonide],temperature above which the medicament begins to decompose,about 165 °C
